{"source": "patent US9113629B2", "about": "“4-amino-6-(4-substituted-phenyl)-picolinates and 6-amino-2-(4-substituted-phenyl)-pyrimidine-4-carboxylates and their use as herbicides” (DOW AGROSCIENCES LLC, priority 2013, dated 2015)", "key": {"[1]": {"test_system": "Key Broadleaf Weed and Crop Species", "assay": "Post-emergent Test II herbicidal activity (Table 5)", "format": "in vivo", "details": "post-emergence, 336 h, post-emergent, 14 days after application; for pest or weed control at 70 g/ha: 70 g ai/ha; for pest or weed control at 140 g/ha: 140 g ai/ha", "outline": "(§1)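 Plants grown in Metro-Mix 360 (pH 6.0–6.8) in a greenhouse (~15 h photoperiod, 23–29 °C day) to first or second true leaf stage, then sprayed with compound in acetone/DMSO/aqueous crop-oil-surfactant carrier at 187 L/ha by track sprayer. Injury visually scored 0–100% versus untreated plants after 14 d.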"}, "[2]": {"test_system": "Key Grass and Sedge Weeds as well as Grass Crops", "assay": "Post-emergent Test II herbicidal activity (Table 6)", "format": "in vivo", "details": "post-emergence, 336 h; for pest or weed control at 70 g/ha: application rate 70 g ai/ha; for pest or weed control at 140 g/ha: application rate 140 g ai/ha", "outline": "as §1"}, "[3]": {"details": "ABUTH: velvetleaf (Abutilon theophrasti), read-out: Visual Growth Reduction (%) 14 Days After Application ABUTH"}, "[4]": {"details": "AMARE: redroot pigweed (Amaranthus retroflexus), read-out: Visual Growth Reduction (%) 14 Days After Application AMARE"}, "[5]": {"details": "BRSNN: oilseed-rape, canola (Brassica napus), read-out: Visual Growth Reduction (%) 14 Days After Application BRSNN"}, "[6]": {"details": "CHEAL: lambsquarters (Chenopodium album), read-out: Visual Growth Reduction (%) 14 Days After Application CHEAL"}, "[7]": {"details": "EPHHL: wild poinsettia (Euphorbia heterophylla), read-out: Visual Growth Reduction (%) 14 Days After Application EPHHL"}, "[8]": {"details": "HELAN: sunflower (Helianthus annuus), read-out: Visual Growth Reduction (%) 14 Days After Application HELAN"}, "[9]": {"details": "VIOTR: wild pansy (Viola tricolor), read-out: Visual Growth Reduction (%) 14 Days After Application VIOTR"}, "[10]": {"details": "Triticum aestivum, TRZSS (wheat), read-out: Visual Growth Reduction (%) 14 Days After Application, TRZSS"}, "[11]": {"details": "CYPES: yellow nutsedge (Cyperus esculentus), read-out: Visual Growth Reduction (%) 14 Days After Application, CYPES"}, "[12]": {"details": "DIGSA: crabgrass (Digitaria sanguinalis), read-out: Visual Growth Reduction (%) 14 Days After Application, DIGSA"}, "[13]": {"details": "ECHCG: barnyardgrass (Echinochloa crus-galli), read-out: Visual Growth Reduction (%) 14 Days After Application, ECHCG"}, "[14]": {"details": "ORYSA: rice (Oryza sativa), read-out: Visual Growth Reduction (%) 14 Days After Application, ORYSA"}, "[15]": {"details": "SETFA: giant foxtail (Setaria faberi), read-out: Visual Growth Reduction (%) 14 Days After Application, SETFA"}, "[16]": {"details": "SORVU: grain sorghum (Sorghum vulgare), read-out: Visual Growth Reduction (%) 14 Days After Application, SORVU"}, "[17]": {"details": "ZEAMX: maize, corn (Zea mays), read-out: Visual Growth Reduction (%) 14 Days After Application, ZEAMX"}}, "note": "Like-named read-outs stand apart in the source and are kept apart here.", "data": [{"smiles": "Cc1c(-c2ccc(I)cc2)nc(C(=O)O)c(Cl)c1N", "note": "[Compound 116, 4-Amino-3-chloro-6-(4-iodophenyl)-5-methylpicolinic acid]", "values": [{"measurement": "pest or weed control at 70 g/ha", "setting": "[1]; [3]", "result": "95 to 100", "unit": "%"}, {"measurement": "pest or weed control at 140 g/ha", "setting": "[1]; [3]", "result": "95 to 100", "unit": "%"}, {"measurement": "pest or weed control at 70 g/ha", "setting": "[1]; [4]", "result": "75 to 84", "unit": "%"}, {"measurement": "pest or weed control at 140 g/ha", "setting": "[1]; [4]", "result": "85 to 94", "unit": "%"}, {"measurement": "pest or weed control at 70 g/ha", "setting": "[1]; [5]", "result": "85 to 94", "unit": "%"}, {"measurement": "pest or weed control at 140 g/ha", "setting": "[1]; [5]", "result": "95 to 100", "unit": "%"}, {"measurement": "pest or weed control at 70 g/ha", "setting": "[1]; [6]", "result": "85 to 94", "unit": "%"}, {"measurement": "pest or weed control at 140 g/ha", "setting": "[1]; [6]", "result": "85 to 94", "unit": "%"}, {"measurement": "pest or weed control at 70 g/ha", "setting": "[1]; [7]", "result": "0 to 29", "unit": "%"}, {"measurement": "pest or weed control at 140 g/ha", "setting": "[1]; [7]", "result": "0 to 29", "unit": "%"}, {"measurement": "pest or weed control at 70 g/ha", "setting": "[1]; [8]", "result": "95 to 100", "unit": "%"}, {"measurement": "pest or weed control at 140 g/ha", "setting": "[1]; [8]", "result": "95 to 100", "unit": "%"}, {"measurement": "pest or weed control at 70 g/ha", "setting": "[1]; [9]", "result": "0 to 29", "unit": "%"}, {"measurement": "pest or weed control at 140 g/ha", "setting": "[1]; [9]", "result": "0 to 29", "unit": "%"}, {"measurement": "pest or weed control at 70 g/ha", "setting": "[2]; [10]", "result": "45 to 59", "unit": "%"}, {"measurement": "pest or weed control at 140 g/ha", "setting": "[2]; [10]", "result": "45 to 59", "unit": "%"}, {"measurement": "pest or weed control at 70 g/ha", "setting": "[2]; [11]", "result": "0 to 29", "unit": "%"}, {"measurement": "pest or weed control at 140 g/ha", "setting": "[2]; [11]", "result": "0 to 29", "unit": "%"}, {"measurement": "pest or weed control at 70 g/ha", "setting": "[2]; [12]", "result": "45 to 59", "unit": "%"}, {"measurement": "pest or weed control at 140 g/ha", "setting": "[2]; [12]", "result": "60 to 74", "unit": "%"}, {"measurement": "pest or weed control at 70 g/ha", "setting": "[2]; [13]", "result": "45 to 59", "unit": "%"}, {"measurement": "pest or weed control at 140 g/ha", "setting": "[2]; [13]", "result": "60 to 74", "unit": "%"}, {"measurement": "pest or weed control at 70 g/ha", "setting": "[2]; [14]", "result": "0 to 29", "unit": "%"}, {"measurement": "pest or weed control at 140 g/ha", "setting": "[2]; [14]", "result": "0 to 29", "unit": "%"}, {"measurement": "pest or weed control at 70 g/ha", "setting": "[2]; [15]", "result": "45 to 59", "unit": "%"}, {"measurement": "pest or weed control at 140 g/ha", "setting": "[2]; [15]", "result": "60 to 74", "unit": "%"}, {"measurement": "pest or weed control at 70 g/ha", "setting": "[2]; [16]", "result": "30 to 44", "unit": "%"}, {"measurement": "pest or weed control at 140 g/ha", "setting": "[2]; [16]", "result": "45 to 59", "unit": "%"}, {"measurement": "pest or weed control at 70 g/ha", "setting": "[2]; [17]", "result": "45 to 59", "unit": "%"}, {"measurement": "pest or weed control at 140 g/ha", "setting": "[2]; [17]", "result": "60 to 74", "unit": "%"}]}, {"smiles": "COC(=O)c1nc(-c2ccc(I)c(F)c2)nc(N)c1OC", "note": "[Compound 27, Methyl 6-amino-2-(3-fluoro-4-iodophenyl)-5-methoxypyrimidine-4-carboxylate]", "values": [{"measurement": "pest or weed control at 70 g/ha", "setting": "[1]; [3]", "result": "60 to 74", "unit": "%"}, {"measurement": "pest or weed control at 140 g/ha", "setting": "[1]; [3]", "result": "75 to 84", "unit": "%"}, {"measurement": "pest or weed control at 70 g/ha", "setting": "[1]; [4]", "result": "60 to 74", "unit": "%"}, {"measurement": "pest or weed control at 140 g/ha", "setting": "[1]; [4]", "result": "75 to 84", "unit": "%"}, {"measurement": "pest or weed control at 70 g/ha", "setting": "[1]; [5]", "result": "60 to 74", "unit": "%"}, {"measurement": "pest or weed control at 140 g/ha", "setting": "[1]; [5]", "result": "60 to 74", "unit": "%"}, {"measurement": "pest or weed control at 70 g/ha", "setting": "[1]; [6]", "result": "85 to 94", "unit": "%"}, {"measurement": "pest or weed control at 140 g/ha", "setting": "[1]; [6]", "result": "85 to 94", "unit": "%"}, {"measurement": "pest or weed control at 70 g/ha", "setting": "[1]; [7]", "result": "95 to 100", "unit": "%"}, {"measurement": "pest or weed control at 140 g/ha", "setting": "[1]; [7]", "result": "95 to 100", "unit": "%"}, {"measurement": "pest or weed control at 70 g/ha", "setting": "[1]; [8]", "result": "85 to 94", "unit": "%"}, {"measurement": "pest or weed control at 140 g/ha", "setting": "[1]; [8]", "result": "85 to 94", "unit": "%"}, {"measurement": "pest or weed control at 70 g/ha", "setting": "[1]; [9]", "result": "95 to 100", "unit": "%"}, {"measurement": "pest or weed control at 140 g/ha", "setting": "[1]; [9]", "result": "95 to 100", "unit": "%"}, {"measurement": "pest or weed control at 70 g/ha", "setting": "[2]; [10]", "result": "45 to 59", "unit": "%"}, {"measurement": "pest or weed control at 140 g/ha", "setting": "[2]; [10]", "result": "45 to 59", "unit": "%"}, {"measurement": "pest or weed control at 70 g/ha", "setting": "[2]; [11]", "result": "0 to 29", "unit": "%"}, {"measurement": "pest or weed control at 140 g/ha", "setting": "[2]; [11]", "result": "95 to 100", "unit": "%"}, {"measurement": "pest or weed control at 70 g/ha", "setting": "[2]; [12]", "result": "0 to 29", "unit": "%"}, {"measurement": "pest or weed control at 140 g/ha", "setting": "[2]; [12]", "result": "0 to 29", "unit": "%"}, {"measurement": "pest or weed control at 70 g/ha", "setting": "[2]; [13]", "result": "0 to 29", "unit": "%"}, {"measurement": "pest or weed control at 140 g/ha", "setting": "[2]; [13]", "result": "0 to 29", "unit": "%"}, {"measurement": "pest or weed control at 70 g/ha", "setting": "[2]; [14]", "result": "0 to 29", "unit": "%"}, {"measurement": "pest or weed control at 140 g/ha", "setting": "[2]; [14]", "result": "0 to 29", "unit": "%"}, {"measurement": "pest or weed control at 70 g/ha", "setting": "[2]; [15]", "result": "0 to 29", "unit": "%"}, {"measurement": "pest or weed control at 140 g/ha", "setting": "[2]; [15]", "result": "0 to 29", "unit": "%"}, {"measurement": "pest or weed control at 70 g/ha", "setting": "[2]; [16]", "result": "0 to 29", "unit": "%"}, {"measurement": "pest or weed control at 140 g/ha", "setting": "[2]; [16]", "result": "30 to 44", "unit": "%"}, {"measurement": "pest or weed control at 70 g/ha", "setting": "[2]; [17]", "result": "0 to 29", "unit": "%"}, {"measurement": "pest or weed control at 140 g/ha", "setting": "[2]; [17]", "result": "0 to 29", "unit": "%"}]}]}
